Test results published in patent US20070172933A1, “Thermally stable amidases” (priority 2003, published 2007).

B1: amidase: thermally stable amidase purified from Pseudonocardia thermophila (DSMZ 43832); SEQ ID No. 1, 2, 3 (protein, listed as Pseudonocardia thermophila)
chain 1: IHMPDPDAV
chain 2: DGLPVGLMIVGKHF
chain 3: MIHMPDPDAVARMAAEGRFGIPVVVICRTYHDLGHRPARLVEQGRRAVRGGGPHPAAALVDPPRRRGRQARRVGGADLDHRNLGGAARRPHGRGQDNVAVAGVPMMNGSRTLEGFVPAEDATVVSRLLAAGATIAGKSVCEDLCFSGGSHTSKPGTVHNPWDMSRSAGGSSSGSGALVAAGEVDMAIGGDQGGSIRIPSAYCGTVGHKPTHGLVPYTGGFPIEQSIDHLGPITRTVADAALMLSVIAGRDGLDPRQPDVVEVQDYVGALAESVSGLRIGVLQEGFGHPNSEPEVDDTVRAAVGTLREAGFTVEDVSVPWHLHATAIWDVLATEGGLWQMVEGNAYGMHWKGHYDPSLIAYYGRKWREDPAQFSETVKLVALAGRYALTTQYGRHYAMARNLAPKLVAAYDAALSNYDVLVMPTLPMRATVLPGPDAPVEEILARGLEMLANTAPFDVTGHPACSVPAGLADGLPVGLMIVGKHFDDATVLKVANAFEQAVGGFPTPAAZ

System: amidase
Experiment: Effect of metals and inhibitors (reagents and ions) on amidase activity, benzamide hydrolysis
Assay type: biochemical, Pseudonocardia thermophila
Details: not given
Procedure: (§1) To carry out the hydrolysis assay, where not mentioned otherwise, use was made of a 5 mM benzamide solution in 500 μl of a 60 mM K-Na phosphate buffer, pH 7.2. The enzymatic reaction proceeded for one hour at 70° C. with addition of 5 μg of the enzyme. The reaction was stopped by cooling the reaction solution on ice. […] One unit (U) of amidase activity is defined as the amount of enzyme which catalyzes the formation of 1 μmol of benzoic acid per minute.
To study the effect of certain reagents and ions on amidase activity, a solution containing 5 μg of amidase and the reagent or ion was preincubated for 1 h at 22° C. in 50 mM phosphate buffer. A 5 mM solution of benzamide in 50 mM phosphate buffer was then added until the end concentration of the reagent in the reaction batch was 1 mM. The reaction was performed for 1 h at 70° C. The catalytic activity was determined as described above.

In the case of `O[C@@H](CS)[C@@H](O)CS` [DTT], the “sensitivity of the amidases to the reagent (in words)” value (from here on “sensitivity of the amidases”) is reported as “increased”.
With `O=C(O)CN(CCN(CC(=O)O)CC(=O)O)CC(=O)O` [EDTA] the “sensitivity of the amidases” value was “insensitive”.
In the case of `CCCCCCCCCCCCOS(=O)(=O)[O-].[Na+]` [SDS], the “sensitivity of the amidases” value is reported as “insensitive”.
With Triton X-100 the “sensitivity of the amidases” value was “insensitive”.

Same assay, conditions: reagent 1 mM; preincubated 1 h at 22° C.; benzamide, 1 h at 70° C.

First: [Ba+2] [Ba^2+]
Second: [Ca+2] [Ca^2+]
The “Amidase activity in %” value of the first is higher: 87% for the first, 85% for the second.

First: [Co+2] [Co^2+]
Second: [Cu+2] [Cu^2+]
The “Amidase activity in %” value of the first is lower: 0% for the first, 26% for the second.

Going from `O[C@@H](CS)[C@@H](O)CS` [DTT] to `O=C(O)CN(CCN(CC(=O)O)CC(=O)O)CC(=O)O` [EDTA], the “Amidase activity in %” value falls from 120% to 100%.

First: [Mg+2] [Mg^2+]
Second: [Mn+2] [Mn^2+]
The “Amidase activity in %” value of the first is lower: 90% for the first, 98% for the second.

Going from `[Ni+2]` [Ni^2+] to `CCCCCCCCCCCCOS(=O)(=O)[O-].[Na+]` [SDS], the “Amidase activity in %” value rises from 42% to 100%.

Compared with `[Zn+2]` [Zn^2+], `NC(=O)CI` [iodoacetamide] is lower in “Amidase activity in %” value: 93% for the first, 90% for the second.

Going from `O=C(O)CI` [iodoacetate] to Triton X-100, the “Amidase activity in %” value rises from 22% to 100%.

System: amidase
Experiment: Substrate specificity of the isolated amidase (hydrolysis assay)
Assay type: biochemical, Pseudonocardia thermophila
Details: not given
Procedure: as §1
The substrate specificity of the amidase was tested at three different temperatures taking into account the substrate used in each case. For hydrolysis of amino acid amides, the reaction mixture was reacted for 3 h at 30° C., in the case of the aliphatic and cyclic amides 1 h at 50° C., and for aromatic amide substrates 1 h at 70° C. The enzymatic activity was then determined as described above. The control used was each batch without enzyme.

m-tolylamide gave a Specific activity of 12.7 µmol/min/mg.

Same assay, conditions: Aliphatic amides; 1 h at 50° C.

Compared with `CC(O)C(N)=O` (racemic) [DL-lactamide], `CC(C)C(N)=O` [isobutyramide] is lower in Specific activity: 18.9 µmol/min/mg for the first, 13.5 µmol/min/mg for the second.

First: CC(N)=O [acetamide]
Second: C=C(C)C(N)=O [methacrylamide]
The Specific activity of the first is lower: 15.7 µmol/min/mg for the first, 23.5 µmol/min/mg for the second.

First: NC(=O)CCCCC(N)=O [adipamide]
Second: NC(=O)CCC(N)=O [succinamide]
The Specific activity of the first is higher: 12.0 µmol/min/mg for the first, 4.0 µmol/min/mg for the second.

Compared with `NC=O` [formamide], `NC(N)=O` [urea] is higher in Specific activity: 9.2 µmol/min/mg for the first, 17.5 µmol/min/mg for the second.

Compared with `CCCCCC(N)=O` [hexanoamide], `CCC(N)=O` [propionamide] is higher in Specific activity: 9.3 µmol/min/mg for the first, 25.4 µmol/min/mg for the second.

First: NC(=O)CC(N)=O [malonamide]
Second: CC(C)(C)C(N)=O [pivalamide]
The Specific activity of the first is lower: 7.4 µmol/min/mg for the first, 14.9 µmol/min/mg for the second.

Same assay, conditions: Amino acid amides; 3 h at 30° C.

First: CSCCC(O)C(N)=O (stereo not drawn) [2-hydroxy-4-(methylthio)butyramide]
Second: CSCC[C@H](N)C(N)=O [L-methioninamide]
The Specific activity of the first is lower: 5.7 µmol/min/mg for the first, 14.4 µmol/min/mg for the second.

Compared with `C[C@H](N)C(N)=O` [L-alaninamide], `CC(C)[C@H](N)C(N)=O` [L-valinamide] is higher in Specific activity: 10.5 µmol/min/mg for the first, 13.0 µmol/min/mg for the second.

First: CC(C)C[C@H](N)C(N)=O [L-leucinamide]
Second: CC(C)(C)[C@H](N)C(N)=O [L-tert-leucinamide]
The Specific activity of the first is higher: 10.8 µmol/min/mg for the first, 0.08 µmol/min/mg for the second.

Going from `NC(=O)[C@@H]1CCCN1` [L-prolinamide] to `NC(=O)[C@@H](N)Cc1c[nH]c2ccccc12` [L-tryptophanamide], the Specific activity falls from 13.0 µmol/min/mg to 10.3 µmol/min/mg.

Same assay, conditions: Aromatic amides; 1 h at 70° C.

First: NC(=O)c1ccccc1N [2-aminobenzamide]
Second: CC(C(N)=O)c1ccccc1 (stereo not drawn) [2-phenylpropionamide]
The Specific activity of the first is lower: 3.4 µmol/min/mg for the first, 15.8 µmol/min/mg for the second.

First: NC(=O)Cc1c[nH]c2ccccc12 [3-indolylacetamide]
Second: NC(=O)c1ccc(N)cc1 [4-aminobenzamide]
The Specific activity of the first is higher: 7.56 µmol/min/mg for the first, 6.5 µmol/min/mg for the second.

Going from `NC(=O)c1ccccc1` [benzamide] to `NC(=O)c1ccccc1O` [o-hydroxybenzamide], the Specific activity falls from 19.4 µmol/min/mg to 7.4 µmol/min/mg.

In the case of p-tolylamide, the Specific activity is reported as 13.1 µmol/min/mg.

Same assay, conditions: Heterocycles; temperature for this group not stated clearly

Compared with `NC(=O)c1ccncc1` [isonicotinamide], `NC(=O)c1cccnc1` [nicotinamide] is higher in Specific activity: 7.1 µmol/min/mg for the first, 11.6 µmol/min/mg for the second.

Molecule `NC(=O)c1cnccn1` [pyrazinamide] has a Specific activity of 11.2 µmol/min/mg.

Same assay, conditions: Table 4, inventive amidase

In the case of B1, the “Substrate specificity (amides)” value is reported as “Al, Ar, Cy, As”.

System: amidase
Experiment: Enantioselectivity of the isolated amidase, chiral HPLC
Assay type: biochemical, Pseudonocardia thermophila
Details: 5 mM racemic substrate, 70° C., after 60 minutes
Procedure: For this, 10 μg of the purified amidase were incubated with a 5 mM racemic 2-phenylpropionamide solution for 3 h at 70° C., the end volume of the reaction batch being 500 μl. At 30-minute intervals, samples were taken from the reaction batch and analyzed by an HPLC measurement.
The product determination and quantification of the R-and S-stereoisomers of the 2-phenylpropionamide were determined by injecting defined amounts of the corresponding pure substances as standard. The enantiomeric excess (ee) was calculated on the basis of the peak area ratio obtained by the chirar HPLC measurement (ee^p=(S−R)/(S+R); ee^p (%)=(S−R)/(S+R) ×100; where p=product).
For the HPLC measurements, a chiral Chirobiotic T column (Astec, Whippany, USA) was used. The solvent used was ethanol and 20 mM potassium phosphate buffer, pH 7.2, having a volumetric ratio of 20:80. The elution was performed at room temperature using a flow rate of 0.8 ml min^−1. Detection was performed at a wavelength of 210 nm. The amfmonia concentration was studied using the phenol hypochloride method using the ammonia kit Spectroquant 114752 (Merck, Germany), the amount of ammonia released being determined spectrometrically using ammonium chloride as standard.

Work on `CC(C(N)=O)c1ccccc1` (stereo not drawn) [2-phenylpropionamide] yielded a conversion of 50%.

Same assay, conditions: 5 mM racemic substrate, 70° C., after 60 minutes, S-enantiomer product

In the case of `CC(C(N)=O)c1ccccc1` (stereo not drawn) [2-phenylpropionamide], the “enantiomeric excess ee^p” value is reported as “greater than 95%”.

Same assay, conditions: racemic substrate, 70° C.

With `CC(C(N)=O)c1ccccc1` (stereo not drawn) [2-phenylpropionamide] the “enantioselectivity of the purified amidase for the substrate” value was “highly S-selective”.

System: not given
Experiment: not given
Assay type: physicochemical, Pseudonocardia thermophila
Details: pH 7.2
Procedure: In addition, the temperature stability of the enzymes was studied between 50° C. and 80° C. over a relatively long period. […] (middle curve, FIG. 5).

In the case of B1, the “enzymatic activity over time (thermal stability)” value is reported as “decreases rapidly”.

System: not listed separately
Experiment: Determination of the isoelectric point by isoelectric focusing
Assay type: physicochemical, Pseudonocardia thermophila
Details: Novex polyacrylamide gel
Procedure: The isoelectric point was determined by means of isoelectric focusing using a Novex polyacrylamide gel (pH .3-10) and using a Novex electrophoresis chamber in accordance with the manufacturer's instructions (Novex, Invitrogen, Netherlands). The isoelectric point of the purified amidase was determined at pH 4.2.

Work on B1 yielded an isoelectric point of 4.2 pH.

Same assay, conditions: Table 4, inventive amidase

With B1 the “IEF point pH” value was 4.2 pH.

System: not listed separately
Experiment: Hydrolysis assay, specific activity of the purified amidase
Assay type: biochemical, Pseudonocardia thermophila
Details: benzamide as substrate, after purification
Procedure: To carry out the hydrolysis assay, where not mentioned otherwise, use was made of a 5 mM benzamide solution in 500 μl of a 60 mM K-Na phosphate buffer, pH 7.2. The enzymatic reaction proceeded for one hour at 70° C. with addition of 5 μg of the enzyme. The reaction was stopped by cooling the reaction solution on ice. The concentration of the products obtained enzymatically (benzoic acid and ammonia) was determined by means of HPLC and spectrometrically, using the ammonia kit Spectroquant 114752 (Merck, Germany). One unit (U) of amidase activity is defined as the amount of enzyme which catalyzes the formation of 1 μmol of benzoic acid per minute.

In the case of B1, the Specific activity is reported as 19.5 U/mg of protein.
